Assays:
[1] = RNA encapsulation efficiency of LNPs (Ribogreen fluorescence assay); assay type: physicochemical; details: LNP, sg:mRNA 1:1, N/P about 6, amine lipid/DSPC/cholesterol/PEG-2k-DMG 50/9/38/3; Table 2, Experiments 2-20
Outline: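 LNPs were diluted in 1× TE with 0.2% Triton X-100 (total RNA) or without it (free RNA), stained with RiboGreen for ~10 min at room temperature in the dark, and read at Ex 488/Em 525 nm against standard curves of the starting RNA. Encapsulation efficiency = (Total − Free)/Total.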

[2] = pKa measurement of unformulated amine lipid (fluorescence, method of Jayaraman et al.); assay type: physicochemical; details: 100 μM in 0.1 M phosphate buffer, pH 2.0-12.0
Protocol: The pKa of each amine lipid was determined according to the method in Jayaraman, et al. (Angewandte Chemie, 2012) with the following adaptations. […] Lipid was diluted to 100 μM in 0.1 M phosphate buffer (Boston Bioproducts) where the pH ranged from 2.0-12.0. Fluorescence intensity was measured using excitation and emission wavelengths of 321 nm and 448 nm.

[3] = Dynamic light scattering of LNPs: Z-average diameter, number average diameter, PDI; assay type: physicochemical; details: LNP, sg:mRNA 1:1, N/P about 6, 50/9/38/3; Table 2, Experiments 2-20
Outline: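 LNP samples were diluted in PBS and measured by DLS to give intensity-based Z-average diameter, number average diameter and polydispersity index. PDI describes size spread around the mean, with zero meaning a uniform population.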

[4] = system: Transthyretin (TTR); assay: Serum TTR ELISA in mice after LNP dosing; assay type: in vivo, CD-1 female mice; details: guide G282 experiments; for Serum TTR % TSS: mouse serum TTR relative to TSS control; for Serum TTR: mouse serum, ELISA
Outline: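 Female CD-1 mice, 6–10 weeks, given LNPs by tail-vein injection (~10 mL/kg), 0.1 mg/kg unless noted; serum taken at day 6 or 7 by cardiac puncture. Total mouse TTR by ELISA on sera diluted 10,000-fold (0.1 mg/kg) or 10,000- and 2,500-fold (0.3 mg/kg).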

Row | SMILES | Encapsulation (%) [1] | pKa [2] | Number mean (nm) [3] | PDI [3] | Z-avg (nm) [3] | Serum TTR % TSS [4] | Serum TTR [4]
1 | CCCCCC/C=C\COC(=O)CCCC(=O)OCC(COC(=O)CCC(OCCCCCCCC)OCCCCCCCC)COC(=O)OCCCN(CC)CC (centres unmarked) [Compound 56, (Z)-3-((4,4-bis(octyloxy)butanoyl)oxy)-2-((((3-(diethylamino)propoxy)carbonyl)oxy)methyl)propyl non-2-en-1-yl glutarate] | 96% | 6.85 | 81.44 nm | 0.067 | 105.2 nm | 66% | 576 µg/mL
2 | CCCCCCCCCCOC(=O)CCCCCCCC(=O)OCC(COC(=O)CCCCCC(=O)OC(CCCCCCCC)CCCCCCCC)COC(=O)CCCN(C)C (centres unmarked) [Compound 82, 1-decyl 9-(3-((4-(dimethylamino)butanoyl)oxy)-2-(((7-(heptadecan-9-yloxy)-7-oxoheptanoyl)oxy)methyl)propyl) nonanedioate] | 98% | 6.31 | 94.01 nm | 0.038 | 117.5 nm | 126% | 953 µg/mL
3 | CCCCCC/C=C\COC(=O)CCCCCCCC(=O)OCC(COC(=O)CCCCCC(=O)OC(CCCCCCCC)CCCCCCCC)COC(=O)OCCCN(CC)CC (centres unmarked) [Compound 85, (Z)-1-(3-(((3-(diethylamino)propoxy)carbonyl)oxy)-2-(((7-(heptadecan-9-yloxy)-7-oxoheptanoyl)oxy)methyl)propyl) 9-(non-2-en-1-yl) nonanedioate] | 99% | 6.16 | 81.21 nm | 0.006 | 97.86 nm | 84% | 762 µg/mL
4 | CCCCC/C=C\C/C=C\CCCCCCCC(=O)OCC(COC(=O)CCCN(C)C)COC(=O)CCC(OCCCCCCCC)OCCCCCCCC (centres unmarked) [Compound 26, 3-((4,4-bis(octyloxy)butanoyl)oxy)-2-(((4-(dimethylamino)butanoyl)oxy)methyl)propyl (9Z,12Z)-octadeca-9,12-dienoate] | 98% | 7.39 | 73 nm | 0.000 | 88 nm | 112% | 1008 µg/mL
5 | CCCCCC/C=C\COC(=O)CCCCCCCC(=O)OCC(COC(=O)CCC(OCCCCCCCCC)OCCCCCCCCC)COC(=O)OCCCN(CC)CC (centres unmarked) [Compound 83, (Z)-1-(3-((4,4-bis(nonyloxy)butanoyl)oxy)-2-((((3-(diethylamino)propoxy)carbonyl)oxy)methyl)propyl) 9-(non-2-en-1-yl) nonanedioate] | 99% | 6.16 | 74.41 nm | 0.009 | 89.55 nm | 54% | 488 µg/mL
6 | CCCCC/C=C\C/C=C\CCCCCCCC(=O)OCC(COC(=O)CCC(OCCCCCCCC)OCCCCCCCC)COC(=O)N1CCN(C)CC1 (centres unmarked) [Compound 47, 3-((4,4-bis(octyloxy)butanoyl)oxy)-2-((((9Z,12Z)-octadeca-9,12-dienoyl)oxy)methyl)propyl 4-methylpiperazine-1-carboxylate] | 97% | 5.9 | 40.95 nm | 0.086 | 58.93 nm | 96% | 1075 µg/mL
7 | CCCCCC/C=C\COC(=O)CCCCCCCC(=O)OCC(COC(=O)CCC(OCCCCCCC)OCCCCCCC)COC(=O)OCCCN(CC)CC (centres unmarked) [Compound 84, (Z)-1-(3-((4,4-bis(heptyloxy)butanoyl)oxy)-2-((((3-(diethylamino)propoxy)carbonyl)oxy)methyl)propyl) 9-(non-2-en-1-yl) nonanedioate] | 95% | 6.16 | 86.08 nm | 0.086 | 114.2 nm | 71% | 648 µg/mL
8 | CCCCC/C=C\C/C=C\CCCCCCCC(=O)OCC(C)(COC(=O)CCC(OCCCCCCCC)OCCCCCCCC)COC(=O)OCCCN(CC)CC (centres unmarked) [Compound 96, 3-((4,4-bis(octyloxy)butanoyl)oxy)-2-((((3-(diethylamino)propoxy)carbonyl)oxy)methyl)-2-methylpropyl (9Z,12Z)-octadeca-9,12-dienoate] | 98% | 5.76 | 65.94 nm | 0.019 | 81.55 nm | 58% | 449 µg/mL
9 | CCCCCCCCCCOC(=O)CCCCCCCC(=O)OCC(COC(=O)CCC(OCCCCCCCC)OCCCCCCCC)COC(=O)OCCC1CCCN1C (centres unmarked) [Compound 74, 1-(3-((4,4-bis(octyloxy)butanoyl)oxy)-2-((((2-(1-methylpyrrolidin-2-yl)ethoxy)carbonyl)oxy)methyl)propyl) 9-decyl nonanedioate] | 99% | 6.39 | 87.14 nm | 0.021 | 105.7 nm | 44% | 406 µg/mL
10 | CCCCC/C=C\C/C=C\CCCCCCCC(=O)OCC(COC(=O)CCC(OCCCCCCCC)OCCCCCCCC)COC(=O)CCN(CC)CC (centres unmarked) [Compound 27, 3-((4,4-bis(octyloxy)butanoyl)oxy)-2-(((3-(diethylamino)propanoyl)oxy)methyl)propyl (9Z,12Z)-octadeca-9,12-dienoate] | 97% | 5.35 | 45 nm | 0.100 | 66 nm | 93% | 841 µg/mL
11 | CCCCCCCCCCOC(=O)CCCCCCCC(=O)OCC(COC(=O)CCC(OCCCCCCCC)OCCCCCCCC)COC(=O)NCCN(CC)CC (centres unmarked) [Compound 73, 1-(3-((4,4-bis(octyloxy)butanoyl)oxy)-2-((((2-(diethylamino)ethyl)carbamoyl)oxy)methyl)propyl) 9-decyl nonanedioate] | 97% | 6.64 | 94.5 nm | 0.008 | 110.6 nm | 60% | 550 µg/mL
12 | CCCCC/C=C\C/C=C\CCCCCCCC(=O)OCC(COC(=O)CCCCN(C)C)COC(=O)CCC(OCCCCCCCC)OCCCCCCCC (centres unmarked) [Compound 25] | 99% | 7.65 | 61 nm | 0.080 | 87 nm | 112% | 1013 µg/mL
13 | CCCCC/C=C\C/C=C\CCCCCCCC(=O)OCC(COC(=O)CCC(OCCCCCCCC)OCCCCCCCC)COC(=O)OCC1CCN(CC)C1 (centres unmarked) [Compound 51, 3-((4,4-bis(octyloxy)butanoyl)oxy)-2-(((((1-ethylpyrrolidin-3-yl)methoxy)carbonyl)oxy)methyl)propyl (9Z,12Z)-octadeca-9,12-dienoate] | 98% | 7.3 | 72.23 nm | 0.018 | 86.15 nm | 76% | 843 µg/mL
14 | CCCCCCCCCCOC(=O)CCCCCCCC(=O)OCC(COC(=O)CCCN(CC)CC)COC(=O)CCC(OCCCCCCCC)OCCCCCCCC (centres unmarked) [Compound 75, 1-(3-((4,4-bis(octyloxy)butanoyl)oxy)-2-(((4-(diethylamino)butanoyl)oxy)methyl)propyl) 9-decyl nonanedioate] | 98% | 6.45 | 92.74 nm | 0.020 | 110.9 nm | 68% | 623 µg/mL
